From PubChem BioAssay (NCI) come the findings set out here.

Structures are written as SMILES. Where “and” joins values, the source holds several entries; their conditions need not be identical. Equal values may be shown once.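 Briefly, cells in 96-well plates were exposed to five compound concentrations for 48 h, and endpoints were estimated by linear interpolation. Abbreviation: GI50, concentration required for 50% inhibition of growth. TGI: total growth inhibition.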

Common to all, as to experiment: NCI anticancer screen, dose series, 48 h
Assay [1] relates to COLO 205 colon.
In assay [2] the test system is HCC-2998 colon.
The test system of assay [3] is HCT-116 colon.
Assay [4] concerns LOX IMVI melanoma.
In assay [5] the test system is MALME-3M melanoma.
In assay [6] the test system is MDA-MB-231 breast.
Assay [7] concerns NCI-H23 lung.
For assay [8], the system named is OVCAR-4 ovarian.
In assay [9] the test system is OVCAR-5 ovarian.
The test system of assay [10] is PC-3 prostate.

Regarding `CC[C@@]1(O)C(=O)OCc2c1cc1n(c2=O)Cc2c-1nc1cc3c(cc1c2C)OCO3`, the GI50 is 0.102 µM in assay [1]; 0.00109 µM in assay [2]; 0.0181 µM in [3]; < 0.0001 µM in [4]; 0.000457 µM in assay [5]; 0.0147 µM in [6]. In addition, the GI50 was < 0.0001 µM in [7]; 0.0244 µM and 0.0174 µM in assay [8]; 0.0694 µM in [9]; 0.0254 µM in assay [10]. In addition, the TGI in assay [1] is > 100 µM; in assay [2], 0.0837 µM and 0.141 µM; in assay [3], 15.1 µM; in assay [4], 0.0319 µM and 0.0306 µM; in assay [5] it was 3.92 µM; in [6] it was > 100 µM. Moreover, the TGI is 0.105 µM and 0.0116 µM in [7]; > 100 µM in assay [8]; 0.0379 µM in assay [9]; > 100 µM in [10].
For `C/C(=C\COc1c2c(cc3c1CCO3)OC1(C=C2)OC(CC/C(C)=C/COc2c3ccoc3cc3oc(=O)ccc23)C(C)(C)O1)CCC(O)C(C)(C)O` (configuration not stated), the GI50 was 23.1 µM in assay [1]; 89.6 µM in assay [2]; 18.4 µM in assay [3]; 28.2 µM in assay [4]; 68.7 µM in assay [5]; 7.59 µM in [6]. Also, the GI50 is 33.7 µM in assay [7], 6.23 µM in assay [8], 80.2 µM in [9] and 6.56 µM in assay [10]. In addition, the TGI in assay [1], in [2], in [3], in [4], in assay [5] and in assay [6] was > 100 µM each time. The TGI in assay [7], in assay [8], in assay [9] and in assay [10] was > 100 µM in each case.
In the case of `O=C(NN=C1CCCCC1)c1[nH]c2ccc(F)cc2c1-c1ccccc1`, the GI50 in assay [1] is 41.6 µM; in assay [2], 17.4 µM; in assay [4], 25.2 µM; in assay [5] it was > 100 µM; in [6] it was 49 µM; in assay [7] it was 33.5 µM. Further, the GI50 in assay [8] is 16.9 µM; in [9] it was 45.6 µM; in assay [10], 52.1 µM. Also, the TGI in assay [1] is > 100 µM; in assay [2], 36.4 µM; in assay [4], > 100 µM; in assay [5], > 100 µM; in [6], > 100 µM; in assay [7] it was > 100 µM. The TGI in [8] was 69.4 µM; in assay [9] it was > 100 µM; in assay [10], > 100 µM.
On to `CCCCCCCCCCCCCCCCOP(=O)(O)OP(=O)(O)OCC1OC(n2ccc(N)nc2=O)C(O)C1O` (configuration not stated), for which the TGI in assay [1], in assay [2], in assay [3], in assay [4], in assay [5] and in assay [6] was > 100 µM in each case. Further, the TGI in assay [7], in assay [8], in [9] and in assay [10] was > 100 µM throughout. Besides, the GI50 in assay [2] was > 100 µM and 36.8 µM; in assay [4], > 100 µM and 28.3 µM; in assay [5], > 100 µM and 46.7 µM; in assay [7], > 100 µM and 38 µM.
Turning to `COC(=O)/C=C/c1cn(C(C)=O)c2ccc(Br)cc12`, the GI50 in assay [1] is 24.8 µM; in assay [2] it was 21.8 µM; in assay [3], 32.6 µM; in [4] it was 17.9 µM; in assay [5] it was 24.9 µM; in assay [6] it was 11.8 µM. For the same molecule, the GI50 in assay [7] was 27.9 µM; in assay [8], 31.4 µM; in [9], 31 µM; in assay [10], 28 µM. Further, the TGI is > 85 µM in assay [1]; 64.8 µM in assay [2]; > 100 µM in assay [3]; > 77.9 µM in assay [4]; > 88.8 µM in assay [5]; 29.5 µM in assay [6]. Besides, the TGI in [7] is > 100 µM; in assay [8] it was > 100 µM; in assay [9] it was > 83.3 µM; in [10], > 100 µM.
As for `O=C(NO)c1ccc(Cn2c(=O)n(-c3ccccc3F)c(=O)c3ccccc32)cc1`, the GI50 in assay [1] is 1.39 µM; in [2] it was 1.42 µM; in assay [3] it was 1.14 µM; in assay [4], 1.71 µM; in assay [5] it was 0.892 µM; in assay [6] it was 3.03 µM. The GI50 in [8] is 1.9 µM; in [9] it was 1.45 µM; in assay [10] it was 1.7 µM. The TGI in assay [1] stood at 3.76 µM; in assay [2], 2.96 µM; in assay [3] it was 3.19 µM; in assay [4] it was 3.2 µM; in [5], 3.16 µM; in assay [6], 7.89 µM. Further, the TGI in assay [8] was determined as 12.9 µM; in assay [9], 7 µM; in assay [10] it was 4.31 µM.
For `COc1ccc(-c2cc(-c3ccc(O)cc3)nc3n[nH]c(N)c23)cc1`, the GI50 in assay [1] was 14.6 µM; in assay [3], 17.4 µM; in assay [4], 17 µM; in assay [5] it was 21 µM; in assay [6], 14.9 µM; in assay [7], 26.5 µM. Also, the figures for the GI50 in assay [8], in assay [9] and in [10] were 43.3 µM, 15.1 µM and 29.1 µM, respectively. Also, the TGI was 32.4 µM in [1]; 37.3 µM in assay [3]; 36.4 µM in assay [4]; 44 µM in [5]; 50.3 µM in assay [6]; 68.3 µM in assay [7]. Also, the TGI in assay [8] was > 100 µM; in assay [9], 48.2 µM; in assay [10] it was > 100 µM.
As to `CC(=O)C1(N=Nc2ccc(S(N)(=O)=O)cc2)CCOC1=O` (configuration not stated), the TGI in [1], in assay [3], in assay [4], in [5], in assay [6] and in [7] was > 100 µM throughout. Besides, the TGI in assay [8], in assay [9] and in [10] was > 100 µM throughout.
